Experimental data from US10918713B2, “Epitopes from allergen proteins and methods and uses for immune response modulation” (LA JOLLA INSTITUTE FOR ALLERGY AND IMMUNOLOGY, priority 2012, dated 2021).

Legend:
DPA1*0103/DPB1*0201 = DPA1*0103/DPB1*0201 (Homo sapiens, UniProt P04440+P20036, A65V/A84D/A85E/K98E); experiment: biochemical
DRB3*0101 = DRB3*0101 (Homo sapiens, UniProt P01903+P79483); experiment: biochemical
DRB3*0202 = DRB3*0202 (Homo sapiens, UniProt P01903+P79483, A212P/D57E/F66Y/L67A/R103Q/R218S/R40L/S89Y/T80R/V86D/Y55F/Y59H); experiment: biochemical
DPB1*0401 = DPB1*0401 (Homo sapiens, UniProt P04440+P20036); experiment: biochemical
DPA1*0201/DPB1*0101 = DPA1*0201/DPB1*0101 (Homo sapiens, UniProt P04440+P20036, F191V/F38Y/F64Y/G113D/G114E/K142R/L158P/L37V/M105V/M116V/M62Q/P115A/Q81R/R125K/R223Q/T114A/T199I/T259P); experiment: biochemical
DPA1*0201/DPB1*0501 = DPA1*0201/DPB1*0501 (Homo sapiens, UniProt P04440+P20036, A65V/A84E/F191V/F64L/G113D/G114E/K142R/L158P/M116V/M62Q/P115A/Q81R/R125K/T114A/T199I/T259P/V234M); experiment: biochemical
[1] = test system: PBMC from allergic donors; experiment: Dual ELISPOT, total IL-5 and IFN-γ response (SFC); type: cell-based, human
Procedure: Spots were counted by computer-assisted image analysis (Zeiss, KS-ELISPOT reader, Munich, Germany).
Each assay was performed in triplicate. The level of statistical significance was determined with a Student's t-test using the mean of triplicate values of the response against relevant pools or individual peptides versus the response against the DMSO control.

HLA-DP = experiment: HLA locus restriction, mAb inhibition of ELISPOT response; type: cell-based, human; conditions: count; ≥50% inhibition by anti-HLA-DP mAb B7/21; 0/0/0 = locus could not be determined
Procedure: (§1) To determine the HLA locus restriction of identified epitopes, mAb inhibition assays were performed as described previously (11, 37). Preliminary determinations were made on control T cell clones of known specificity to determine optimal antibody doses leading to complete inhibition of the specific clones, and not associated with inhibition of clones known to be restricted by a different HLA allele or locus. This antibody concentration was then utilized in experiments where a dose response of antigenic peptide was tested in the presence or absence of the specific antibodies. Experimental determinations were performed utilizing ELISPOT assays specific for the particular lymphokine utilized to originally identify the particular epitope mapped.
(§2) For each antigenic region/donor combination short-term T cell lines were derived by extract stimulation of triplicate cultures of 2-3 million cells. IL-2 was added 5-8 days following stimulation. After 14 days of stimulation with the corresponding allergen extract (2-50 μg/ml), the HLA locus that restricted the response to the specific lymphokine was determined by measuring the capacity of mAbs specific for HLA-DR, DP or DQ to inhibit (block) the response. For this, PBMCs were incubated with 10 μg/ml of mAbs (Strategic Biosolutions, Windham, Me.) against HLA-DR (LB3.1), DP (B7/21) or DQ (SVPL3) 30 minutes prior to addition of 10 μg/ml of peptide. Cytokine production induced by positive peptides was then measured in ELISPOT assays as described above. The pan MHC class I Ab (W6/32) was used as a control. The decrease (inhibition) in cytokine production in the presence of an HLA locus specific mAb, relative to production in the absence of mAb, was determined.

HLA-DQ = experiment: as above; type: cell-based, human; conditions: count; ≥50% inhibition by anti-HLA-DQ mAb SVPL3; 0/0/0 = locus could not be determined
Procedure: as §1, §2

HLA-DR = experiment: as above; type: cell-based, human; conditions: count; ≥50% inhibition by anti-HLA-DR mAb LB3.1; 0/0/0 = locus could not be determined
Procedure: as §1, §2

Chain of DRB3*0202 (P01903 26-254 limits assumed): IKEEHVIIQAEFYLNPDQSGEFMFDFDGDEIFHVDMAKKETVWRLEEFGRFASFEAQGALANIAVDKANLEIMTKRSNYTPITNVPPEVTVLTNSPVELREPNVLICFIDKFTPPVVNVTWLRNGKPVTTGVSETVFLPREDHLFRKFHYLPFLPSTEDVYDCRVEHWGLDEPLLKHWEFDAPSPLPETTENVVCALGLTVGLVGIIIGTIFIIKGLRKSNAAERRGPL
Chain of DRB3*0202 (P79483 30-266 R40L/Y55F/D57E/Y59H/F66Y/L67A/T80R/V86D/S89Y/R103Q/A212P/R218S limits assumed): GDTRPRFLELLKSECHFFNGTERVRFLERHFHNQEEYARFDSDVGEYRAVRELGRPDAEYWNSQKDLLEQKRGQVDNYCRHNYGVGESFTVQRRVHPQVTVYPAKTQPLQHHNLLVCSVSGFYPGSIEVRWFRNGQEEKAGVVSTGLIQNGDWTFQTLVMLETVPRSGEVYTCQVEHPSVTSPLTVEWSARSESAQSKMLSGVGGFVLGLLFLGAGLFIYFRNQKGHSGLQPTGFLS
Chain of DPA1*0201/DPB1*0501 (P20036 29-260 M62Q/Q81R/T114A/K142R/L158P/F191V/T259P, other chains not shown): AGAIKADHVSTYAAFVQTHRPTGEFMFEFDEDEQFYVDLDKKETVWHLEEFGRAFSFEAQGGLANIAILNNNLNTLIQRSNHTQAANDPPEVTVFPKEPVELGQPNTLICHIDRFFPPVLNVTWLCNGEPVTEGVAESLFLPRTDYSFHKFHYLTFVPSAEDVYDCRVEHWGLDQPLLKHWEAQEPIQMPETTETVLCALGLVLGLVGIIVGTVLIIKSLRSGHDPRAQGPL
Chain of DPA1*0201/DPB1*0101 (P20036 29-260 M62Q/Q81R/T114A/K142R/L158P/F191V, other chains not shown): as the sequence (P20036 29-260 M62Q/Q81R/T114A/K142R/L158P/F191V/T259P, other chains not shown) above, with P231T counted along it

| IC50 (DPA1*0103/DPB1*0201) [nM] | IC50 (DRB3*0101) [nM] | IC50 (DRB3*0202) [nM] | IC50 (DPB1*0401) [nM] | IC50 (DPA1*0201/DPB1*0101) [nM] | IC50 (DPA1*0201/DPB1*0501) [nM] | Compound | Donors responding ([1]; number of allergic donors recognizing the epitope region) | % responding ([1]; percent of tested allergic donors responding) [%] | Total SFC ([1]; total response to the epitope region) [SFC] | Region restriction(s) DP (HLA-DP) | Region restriction(s) DQ (HLA-DQ) | Region restriction(s) DR (HLA-DR) |
| --- | --- | --- | --- | --- | --- | --- | --- | --- | --- | --- | --- | --- |
| 18000 | 6000 | 5270 | 1610 | – | – | CC[C@H](C)[C@H](NC(=O)[C@H](CC(=O)O)NC(=O)[C@H](CC(=O)O)NC(=O)[C@H](CO)NC(=O)[C@@H](NC(=O)[C@@H](N)CCCCN)C(C)C)C(=O)N[C@H](C(=O)N[C@@H](Cc1ccc(O)cc1)C(=O)N[C@H](C(=O)N[C@@H](C)C(=O)N[C@H](C(=O)N[C@@H](C)C(=O)N[C@H](C(=O)N[C@@H](CC(C)C)C(=O)N1CCC[C@H]1C(=O)O)[C@@H](C)O)[C@@H](C)O)C(C)C)[C@@H](C)O [3324.0013] | – | – | – | – | – | – |
| – | – | – | 2500 | 40 | 7.1 | CC[C@H](C)[C@H](NC(=O)[C@H](Cc1ccc(O)cc1)NC(=O)[C@H](C)NC(=O)[C@H](CC(=O)O)NC(=O)[C@H](C)NC(=O)[C@@H](N)C(C)C)C(=O)N[C@H](C(=O)N[C@@H](CC(C)C)C(=O)N[C@H](C(=O)N[C@H](C(=O)N[C@@H](CC(C)C)C(=O)N1CCC[C@H]1C(=O)N[C@@H](CCCCN)C(=O)N[C@@H](CO)C(=O)N[C@@H](CO)C(=O)O)[C@@H](C)O)C(C)C)[C@@H](C)O [3324.0016] | – | – | – | – | – | – |
| – | – | – | – | – | – | Bet v 1 (111-125): epitope region of allergen Bet v 1, Birch | 3 | 30.0 | 1132 | 0 | 0 | 2 |
